Assay results published in PubChem BioAssay (NCI).
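Test compounds were applied to cells in 96-well plates for 48 hours at 5 doses. At the GI50, growth is halved. Definition used: TGI = concentration required for complete inhibition of growth.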

Key:
Assay in all cases: NCI tumour cell line growth inhibition, 48 h
[1] = test system: SNB-78 CNS
[2] = test system: KM20L2 colon
[3] = test system: RXF-631 renal
[4] = test system: DMS 273 small cell lung
[5] = test system: HOP-18 NSCLC
[6] = test system: MDA-N
[7] = test system: MDA-MB-435
[8] = test system: MCF7 breast
[9] = test system: T-47D breast
[10] = test system: P388 leukemia

| Compound | TGI [1] [µM] | TGI [2] [µM] | TGI [3] [µM] | TGI [4] [µM] | TGI [5] [µM] | also measured |
| --- | --- | --- | --- | --- | --- | --- |
| Oc1ccc(Br)cc1C=Nc1ccc(N=Cc2cc(Br)ccc2O)cc1 | > 100 | > 100 | – | – | – | – |
| COc1cc(C(=O)N2CCc3c([nH]c4c([N+](=O)[O-])c(OC)ccc34)C2C)cc(OC)c1OC (configuration not stated) | > 100 | > 100 | > 100 | > 100 | – | – |
| CC(=O)OCCOCNC(=S)N/N=C/c1ccc(Br)s1 | > 100 | > 100 | – | > 100 | > 100 | – |
| CC1=C(C(=O)NNS(=O)(=O)c2ccc(C)cc2)CC(C(=O)NNS(=O)(=O)c2ccc(C)cc2)=C(C)N1 | > 100 | > 100 | > 100 | – | > 100 | – |
| Cc1cccc(N=C2NC(=O)C(CC(=O)Nc3cccc(C)c3C)S2)c1 (configuration not stated) | > 100 | > 100 | – | – | – | – |
| Cc1ncc([N+](=O)[O-])n1CCNS(=O)(=O)CCCn1ncnc1[N+](=O)[O-] | – | – | – | – | – | TGI [6]: > 100 µM; TGI [7]: > 100 µM; TGI [8]: > 100 µM; TGI [9]: > 100 µM |
| O=[N+]([O-])c1ccc(CSCc2ccc(Cl)cc2)cc1 | – | – | – | – | – | TGI [6]: > 100 µM; TGI [7]: > 100 µM; TGI [8]: > 100 µM; TGI [9]: > 100 µM |
| CC(O)CC(O)(C(F)(F)F)C(F)(F)F (configuration not stated) | – | – | – | – | – | TGI [6]: > 10 µM; TGI [7]: > 10 µM; TGI [8]: > 10 µM; TGI [9]: > 10 µM |
| C=CCn1c2c(sc1=S)C(S)N=CN2 (configuration not stated) | > 100 | > 100 | – | > 100 | 70.1 | – |
| OCC(O)CNc1ccnc2cc(Cl)ccc12 (configuration not stated) | > 100 | > 100 | – | – | > 100 | – |
| [F][Sn]([F])([c]1ccccc1)[c]1ccccc1 | 16 | 3.39 | 6.01 | 5.26 | 3.59 | GI50 [3]: 2.3 µM; GI50 [4]: 2.17 µM; GI50 [5]: 2.08 µM; GI50 [1]: 3.18 µM; GI50 [2]: 1.87 µM |
| CCOc1ccccc1NC(=O)C(=O)Cc1nc2ccccc2s1 | > 100 | > 100 | > 100 | > 100 | > 100 | – |
| O=C(O)CN(c1ccccc1)S(=O)(=O)c1ccc([N+](=O)[O-])cc1 | – | > 100 | > 100 | > 100 | > 100 | – |
| Cc1cccc(C(C)C)c1NC(=O)C(=O)C(C(=O)c1ccccc1F)C1OC(=O)c2ccccc21 (configuration not stated) | – | 76.5 | 60.3 | 44.3 | 32.4 | – |
| O=c1[nH]c(=O)n([C@H]2CCCO2)cc1F | – | – | – | – | – | GI50 [6]: 357 µM; TGI [6]: > 5000 µM; GI50 [7]: 1350 µM; TGI [7]: > 5000 µM; GI50 [8]: 575 µM; TGI [8]: > 5000 µM; GI50 [9]: 2610 µM; TGI [9]: > 5000 µM; TGI [10]: 565 µM |
| N#CC(C(=O)CCC(=O)Nc1cccc(C(F)(F)F)c1)c1ccc(Cl)cc1 (configuration not stated) | > 100 | > 100 | > 100 | > 100 | > 100 | – |
| COc1cc(C2C(C(=O)Nc3cc(F)c(F)cc3F)=C(C)NC(C)=C2C(=O)Nc2cc(F)c(F)cc2F)ccc1O | > 100 | > 100 | 37.9 | – | – | – |
| Nc1nc(N)c2cc(CNc3ccc(C(=O)NC(CC(=O)O)C(=O)O)c(Cl)c3)ccc2n1 (configuration not stated) | – | – | – | – | – | GI50 [6]: 0.05 µM; TGI [6]: > 500 µM; GI50 [7]: 0.05 µM; TGI [7]: > 500 µM; TGI [8]: > 500 µM; TGI [9]: > 500 µM |
| CC(=O)OC1C2CCC1C1C2C2(Cl)C(Cl)=C(Cl)C1(Cl)C2(Cl)Cl (configuration not stated) | 34.8 | 22.9 | – | 25.4 | 33.8 | – |
| CC1=C(c2cc(C(=O)Nc3ccc(Cl)cc3)nc(=S)[nH]2)Sc2ccccc2N1 | > 100 | > 100 | > 100 | > 100 | > 100 | – |
| COC(=O)/C(=C\c1ccc(N(CCC#N)CCC#N)cc1)NC(=O)c1cc([N+](=O)[O-])ccc1Cl | > 100 | > 100 | – | > 100 | > 100 | – |
| Cc1cccc(C)c1NC(=O)C(=O)CC(=O)c1cccc([N+](=O)[O-])c1 | > 100 | > 100 | – | > 100 | > 100 | – |
| O=c1nc(-c2ccccc2)cc(-c2ccccc2O)[nH]1 | > 100 | > 100 | – | > 100 | > 100 | – |
| CC(C)(C)OC(=O)N1N=NC2C1C1CC(OCc3ccccc3)(OCc3ccccc3)C2O1 (configuration not stated) | > 100 | > 100 | > 100 | > 100 | > 100 | – |
| CC(C(=O)n1c2ccccc2c2ccccc21)N(c1ccccc1)c1ccccc1 (configuration not stated) | 32 | 33.1 | – | 34.1 | – | – |
| Cc1cc(C(C)(C)C)cc(Cc2cc(C(C)(C)C)cc(Cc3cc(C(C)(C)C)cc(C)c3O)c2O)c1O | 17.9 | 29.6 | – | 22.8 | 29 | – |
| CCOC(=O)Cn1c(=O)n(C)c(=O)c2c1ncn2Cc1ccccc1 | > 100 | > 100 | – | > 100 | – | – |
| COC(=O)c1cccc2cccc(C(=O)Nc3ccc(Cl)cc3)c12 | > 100 | > 100 | > 100 | 22.2 | > 100 | – |
